Data taken from ChEMBL document CHEMBL3885861, “Open TG-GATES”.

Species on record: Rattus norvegicus
Assay: Open TG-GATES - Regimen: Single
Format: toxicity, organism-based, Sprague-Dawley
Set-up: regimen Single, gender Male, age 6 weeks
Conditions: in vivo, ip, 300 mg/kg, route intraperitoneal injection, dose level Middle; for APTT / Bas / Eos / Fbg / Hb / Ht / Lym / MCH / MCHC / MCV / Mono / Neu / PT / Plat / RBC / Ret / WBC: tissue Blood; for KIDNEY_L / KIDNEY_R / KIDNEY_TOTAL: tissue Kidney; for LIVER: tissue Liver; for A/G / ALP / ALT / AST / BUN / CRE / Ca / Cl / DBIL / GLC / IP / K / LDH / Na / PL / RALB / TBIL / TC / TG / TP / gamma-GTP: tissue Plasma

Compound `N[C@H]1C(O)O[C@H](CO)[C@@H](O)[C@@H]1O` (some centres not stated) [GLUCOSAMINE] has a TERMINAL_BW (3 h) of 188.6 g, an APTT (3 h) of 17.5 s and a Bas (3 h) of 0.4%. It also gave an Eos (3 h) of 0.4%, a Fbg (3 h) of 247.4 mg/dL and a Hb (3 h) of 12.6 g/dL. The Ht (3 h) was 38.9%, the Lym (3 h) was 67% and the MCH (3 h) was 21 pg. The MCHC (3 h) was 32.3%, the MCV (3 h) was 64.9 fL and the Mono (3 h) was 4%. For the same compound, the Neu (3 h) was 27%, the PT (3 h) was 16.2 s and the Plat (3 h) was 112.1 x10_4/uL. It also gave an RBC (3 h) of 600.6 x10_4/ul, a Ret (3 h) of 9.4% and a WBC (3 h) of 96.7 x10_2/uL. For the same compound, the KIDNEY_L (3 h) was 0.9 g, the KIDNEY_R (3 h) was 0.9 g and the KIDNEY_TOTAL (3 h) was 1.8 g. It also gave an LIVER (3 h) of 8.4 g, an A/G (3 h) of 0.9 and an ALP (3 h) of 1578.8 IU/L. The ALT (3 h) was 43.4 IU/L, the AST (3 h) was 82 IU/L and the BUN (3 h) was 10.6 mg/dL. The CRE (3 h) was 0.2 mg/dL, the Ca (3 h) was 10.5 mg/dL and the Cl (3 h) was 107.8 meq/L. For the same compound, the DBIL (3 h) was 0.012 mg/dL, the GLC (3 h) was 165.8 mg/dL and the IP (3 h) was 8.9 mg/dL. The K (3 h) was 4 meq/L, the LDH (3 h) was 55.6 IU/L and the Na (3 h) was 142.2 meq/L. The PL (3 h) was 136.4 mg/dL, the RALB (3 h) was 2.3 g/dL and the TBIL (3 h) was 0.052 mg/dL. It also gave a TC (3 h) of 76.6 mg/dL, a TG (3 h) of 34.8 mg/dL and a TP (3 h) of 5 g/dL. It also gave a gamma-GTP (3 h) of 1 IU/L, a TERMINAL_BW (6 h) of 188.8 g and an APTT (6 h) of 20.1 s. The Bas (6 h) was 0.2%, the Eos (6 h) was 1% and the Fbg (6 h) was 234.4 mg/dL. It also gave a Hb (6 h) of 13.6 g/dL, a Ht (6 h) of 41.5% and a Lym (6 h) of 63%. For the same compound, the MCH (6 h) was 21.3 pg, the MCHC (6 h) was 32.7% and the MCV (6 h) was 65.2 fL. The Mono (6 h) was 2.6%, the Neu (6 h) was 32.6% and the PT (6 h) was 18.9 s. The Plat (6 h) was 107.5 x10_4/uL, the RBC (6 h) was 636.8 x10_4/ul and the Ret (6 h) was 9%. The WBC (6 h) was 50.8 x10_2/uL, the KIDNEY_L (6 h) was 0.8 g and the KIDNEY_R (6 h) was 0.8 g. The KIDNEY_TOTAL (6 h) was 1.6 g, the LIVER (6 h) was 8.4 g and the A/G (6 h) was 0.9. For the same compound, the ALP (6 h) was 1576.2 IU/L, the ALT (6 h) was 145.8 IU/L and the AST (6 h) was 213.4 IU/L. It also gave a BUN (6 h) of 13.8 mg/dL, a CRE (6 h) of 0.2 mg/dL and a Ca (6 h) of 10.2 mg/dL. The Cl (6 h) was 107.2 meq/L, the DBIL (6 h) was 0.01 mg/dL and the GLC (6 h) was 164.4 mg/dL. It also gave an IP (6 h) of 9 mg/dL, a K (6 h) of 3.7 meq/L and an LDH (6 h) of 212.6 IU/L. It also gave a Na (6 h) of 142.4 meq/L, a PL (6 h) of 129.8 mg/dL and an RALB (6 h) of 2.3 g/dL. The TBIL (6 h) was 0.054 mg/dL, the TC (6 h) was 70 mg/dL and the TG (6 h) was 17.8 mg/dL. It also gave a TP (6 h) of 4.9 g/dL, a gamma-GTP (6 h) of 1 IU/L and a TERMINAL_BW (9 h) of 183.2 g. It also gave an APTT (9 h) of 18.5 s, a Bas (9 h) of 0% and an Eos (9 h) of 0.6%. It also gave a Fbg (9 h) of 307.6 mg/dL, a Hb (9 h) of 12.7 g/dL and a Ht (9 h) of 39%. The Lym (9 h) was 73%, the MCH (9 h) was 21.1 pg and the MCHC (9 h) was 32.6%. The MCV (9 h) was 64.7 fL, the Mono (9 h) was 1.8% and the Neu (9 h) was 23.6%. It also gave a PT (9 h) of 17.2 s, a Plat (9 h) of 109.8 x10_4/uL and an RBC (9 h) of 602.8 x10_4/ul. For the same compound, the Ret (9 h) was 9.2%, the WBC (9 h) was 55.1 x10_2/uL and the KIDNEY_L (9 h) was 0.9 g. It also gave a KIDNEY_R (9 h) of 0.9 g, a KIDNEY_TOTAL (9 h) of 1.7 g and an LIVER (9 h) of 7.3 g. The A/G (9 h) was 0.9, the ALP (9 h) was 1464 IU/L and the ALT (9 h) was 40.6 IU/L. The AST (9 h) was 84.4 IU/L, the BUN (9 h) was 7.6 mg/dL and the CRE (9 h) was 0.1 mg/dL. The Ca (9 h) was 10.3 mg/dL, the Cl (9 h) was 107.4 meq/L and the DBIL (9 h) was 0.012 mg/dL. For the same compound, the GLC (9 h) was 162.2 mg/dL, the IP (9 h) was 9.9 mg/dL and the K (9 h) was 3.8 meq/L. It also gave an LDH (9 h) of 54.6 IU/L, a Na (9 h) of 142 meq/L and a PL (9 h) of 117.8 mg/dL. For the same compound, the RALB (9 h) was 2.4 g/dL, the TBIL (9 h) was 0.06 mg/dL and the TC (9 h) was 63.4 mg/dL. The TG (9 h) was 23.6 mg/dL, the TP (9 h) was 5.2 g/dL and the gamma-GTP (9 h) was 0.8 IU/L. It also gave a TERMINAL_BW (24 h) of 190.9 g, an APTT (24 h) of 19.9 s and a Bas (24 h) of 0.6%. The Eos (24 h) was 1.4%, the Fbg (24 h) was 205.8 mg/dL and the Hb (24 h) was 14.1 g/dL. The Ht (24 h) was 43.4%, the Lym (24 h) was 70% and the MCH (24 h) was 20.9 pg. The MCHC (24 h) was 32.5%, the MCV (24 h) was 64.3 fL and the Mono (24 h) was 3.8%. The Neu (24 h) was 23%, the PT (24 h) was 25.4 s and the Plat (24 h) was 102.4 x10_4/uL. It also gave an RBC (24 h) of 675.6 x10_4/ul, a Ret (24 h) of 7.9% and a WBC (24 h) of 79.5 x10_2/uL. It also gave a KIDNEY_L (24 h) of 0.8 g, a KIDNEY_R (24 h) of 0.9 g and a KIDNEY_TOTAL (24 h) of 1.7 g. The LIVER (24 h) was 8.1 g, the A/G (24 h) was 0.9 and the ALP (24 h) was 2031.4 IU/L. For the same compound, the ALT (24 h) was 214.6 IU/L, the AST (24 h) was 341.6 IU/L and the BUN (24 h) was 13.4 mg/dL. The CRE (24 h) was 0.2 mg/dL, the Ca (24 h) was 10.3 mg/dL and the Cl (24 h) was 107 meq/L. The DBIL (24 h) was 0.068 mg/dL, the GLC (24 h) was 165.4 mg/dL and the IP (24 h) was 9.1 mg/dL. For the same compound, the K (24 h) was 4.3 meq/L, the LDH (24 h) was 168 IU/L and the Na (24 h) was 143.8 meq/L. It also gave a PL (24 h) of 118.2 mg/dL, an RALB (24 h) of 2.4 g/dL and a TBIL (24 h) of 0.1 mg/dL. The TC (24 h) was 57.2 mg/dL, the TG (24 h) was 42 mg/dL and the TP (24 h) was 5.2 g/dL. It also gave a gamma-GTP (24 h) of 1 IU/L.
